Results on twelve compounds are retold here after ChEMBL document CHEMBL2021902, “Type 1 phototherapeutic agents, part I: preparation and cancer cell viability studies of novel photolabile sulfenamides” (ACS Med Chem Lett, 2011).

Broadly, the IC50 is the midpoint of a concentration-inhibition curve.

Holding throughout (type): functional, cell-based
One assay relates to U-937. As to the kind of experiment: Cytotoxicity in UV-irradiated human U937 cells exposed to photosensitizer for 2 hrs before irradiation for 20 mins by WST-1 assay. Particulars: for IC50: U-937, light or radiation study. In general terms: Tetrazolium assays rely on reduction of a dye to a coloured formazan, in cell work by metabolically active cells.
The next assay deals with HT-29. The assay is described as follows: Cytotoxicity in UV-irradiated human HT-29 cells exposed to photosensitizer for 2 hrs before irradiation for 20 mins by WST-1 assay.
The next assay has as its system HCT-116. The assay is described as follows: Cytotoxicity in UV-irradiated human HCT116 cells exposed to photosensitizer for 2 hrs before irradiation for 20 mins by WST-1 assay.
The next assay deals with KB. As to the kind of experiment: Cytotoxicity in UV-irradiated human KB cells exposed to photosensitizer for 2 hrs before irradiation for 20 mins by WST-1 assay.

The source made the active and inactive calls. The rule behind the calls is not given here.

Turning to `O=[N+]([O-])c1ccc(SN2Cc3ccccc3-c3ccccc32)cc1`, in the assay on U-937, the Activity result was “Dose-dependent effect” and the IC50 worked out at 7.3 µM.
On the same counts, the results for `O=[N+]([O-])c1ccc(SN2CCc3ccccc3-c3ccccc32)cc1` are “Dose-dependent effect” and 6 µM.
For `O=[N+]([O-])c1ccc(SN2Cc3ccccc3Cc3ccccc32)cc1` the same measures were “Dose-dependent effect” and 5.7 µM.
Take `O=[N+]([O-])c1ccc(SN2c3ccccc3Cc3ccccc32)cc1`: the result in the assay with HT-29, in the assay on HCT-116 and in the assay with KB was Active. In the assay on U-937, the Activity result was “Dose-dependent effect”. Besides, the IC50 in the assay with U-937 is 1.3 µM.
With `O=[N+]([O-])c1ccc(SN2Cc3ccccc3Oc3ccccc32)cc1`, in the assay on U-937, the Activity result is “Dose-dependent effect” and the IC50 came out at 17.2 µM.
With `O=[N+]([O-])c1ccc(SN(c2ccccc2)c2ccccc2)cc1`, in the assay on U-937, the Activity entry is “Dose-dependent effect” and the IC50 worked out at 6.8 µM.
Regarding `O=[N+]([O-])c1ccc(SN2c3ccccc3Sc3ccccc32)cc1`, in the assay with U-937, the Activity entry is “Dose-dependent effect” and the IC50 amounted to 12.4 µM.
Regarding `O=[N+]([O-])c1ccc(SN2c3ccccc3C=Cc3ccccc32)cc1`, the outcome in the assay on HT-29, in the assay with HCT-116 and in the assay on KB was Active. The Activity entry with U-937 is “Dose-dependent effect”. In addition, the IC50 in the assay on U-937 is 1.2 µM.
Turning to `O=[N+]([O-])c1ccc(SN2c3ccccc3N=Nc3ccccc32)cc1`, in the assay with U-937, the Activity result was “Dose-dependent effect” and the IC50 is over 20 µM.
`CC1=Nc2ccc(Cl)cc2N(Sc2ccc([N+](=O)[O-])cc2)c2ccccc21`: in the assay on U-937, the Activity entry is “Dose-dependent effect” and the IC50 was found to be 2 µM.
For `O=[N+]([O-])c1ccc(SN2c3ccccc3Oc3ccccc32)cc1`, in the assay on U-937, the Activity entry was “Dose-dependent effect” and the IC50 was over 20 µM.
On the same counts, the results for `O=[N+]([O-])c1ccc(Sn2c3ccccc3c3ccccc32)cc1` are “Dose-dependent effect” and over 20 µM.
